One assay addresses TAF1-BD1 (Homo sapiens, UniProt P21675). Kind of assay: TAF1-BD1 TR-FRET Binding Assay. The following applies: read-out: TAF1-BD1 HTRF IC50. Background: Time-resolved FRET reads energy transfer from a long-lived donor to a nearby acceptor.
The next assay addresses TAF1-BD2 (Homo sapiens, UniProt P21675). Kind of assay: TAF1-BD2 TR-FRET Binding Assay. Conditions: read-out: TAF1-BD2 HTRF IC50.

The term IC50 denotes the concentration that gives 50% inhibition.

Turning to `C=CCCn1cc(C#CC(C)(C)CO)c2c(C(=O)OCC)c(C)[nH]c2c1=O` [Example 47, ethyl 6-but-3-enyl-4-(4-hydroxy-3,3-dimethyl-but-1-ynyl)-2-methyl-7-oxo-1H-pyrrolo[2,3-c]pyridine-3-carboxylate], the values for the IC50 at TAF1-BD1 and on TAF1-BD2 were 4.9 µM and 0.368 µM, respectively.

With `CCOC(=O)c1c(C)[nH]c2c(=O)n(C)cc(C#CC(O)(c3cccnc3)C(F)(F)F)c12` (stereo not shown) [Example 1, ethyl 2,6-dimethyl-7-oxo-4-(4,4,4-trifluoro-3-hydroxy-3-(3-pyridyl)but-1-ynyl)-1H-pyrrolo[2,3-c]pyridine-3-carboxylate], the figures for the IC50 on TAF1-BD1 and at TAF1-BD2 were 0.312 µM and 0.0804 µM, respectively.

Consider `Cc1[nH]c2c(=O)n(C)cc(C#CC(C)(C)O)c2c1C(=O)O` [Example 200, 4-(3-hydroxy-3-methyl-but-1-ynyl)-2,6-dimethyl-7-oxo-1H-pyrrolo[2,3-c]pyridine-3-carboxylic acid], for which the IC50 at TAF1-BD1 came out at 20 µM; on TAF1-BD2, 13.7 µM.

`Cc1[nH]c2c(=O)n(C)cc(C#CC(C)(O)CC#N)c2c1C(=O)OCC(C)C` (stereo not shown) [Example 154, isobutyl 4-(4-cyano-3-hydroxy-3-methyl-but-1-ynyl)-2,6-dimethyl-7-oxo-1H-pyrrolo[2,3-c]pyridine-3-carboxylate]: the IC50 stood at 0.15 µM at TAF1-BD1 and 0.0998 µM on TAF1-BD2.

For `Cc1cc([C@](C)(O)C#Cc2cn(C)c(=O)c3[nH]c(C)c(C(=O)OC(C)C)c23)no1` [Example 157, isopropyl 4-[(3R)-3-hydroxy-3-(5-methylisoxazol-3-yl)but-1-ynyl]-2,6-dimethyl-7-oxo-1H-pyrrolo[2,3-c]pyridine-3-carboxylate], the IC50 turned out to be 0.233 µM on TAF1-BD1 and 0.0712 µM at TAF1-BD2.

Turning to `Cc1[nH]c2c(=O)n(C)cc(C#CC(C)(C)O)c2c1C(=O)OCC(C)C` [Example 132, isobutyl 4-(3-hydroxy-3-methyl-but-1-ynyl)-2,6-dimethyl-7-oxo-1H-pyrrolo[2,3-c]pyridine-3-carboxylate], the values for the half-inhibitory concentration (IC50) at TAF1-BD1 and on TAF1-BD2 were 0.173 µM and 0.0299 µM, respectively.

For the compound `Cc1cc([C@](C)(O)C#Cc2cn(C)c(=O)c3[nH]c(C)c(-c4nnc(C(C)C)o4)c23)no1` [Example 194, 4-[(3R)-3-hydroxy-3-(5-methylisoxazol-3-yl)but-1-ynyl]-3-(5-isopropyl-1,3,4-oxadiazol-2-yl)-2,6-dimethyl-1H-pyrrolo[2,3-c]pyridin-7-one], the concentration for half-maximal inhibition (IC50) is 0.244 µM on TAF1-BD1 and 0.0691 µM on TAF1-BD2.

For `CCOC(=O)c1c(C)[nH]c2c(=O)n(C)cc(C#CC(C)(C)C(N)=O)c12` [Example 37, ethyl 4-(4-amino-3,3-dimethyl-4-oxo-but-1-ynyl)-2,6-dimethyl-7-oxo-1H-pyrrolo[2,3-c]pyridine-3-carboxylate], the IC50 turned out to be 0.382 µM on TAF1-BD1 and 0.221 µM at TAF1-BD2.

On to `CCOC(=O)c1c(C)[nH]c2c(=O)n(C)cc(C#CC(O)(c3cccc(N(C)C)c3)C(F)(F)F)c12` (stereo not shown) [Example 39, ethyl 4-[3-[3-(dimethylamino)phenyl]-4,4,4-trifluoro-3-hydroxy-but-1-ynyl]-2,6-dimethyl-7-oxo-1H-pyrrolo[2,3-c]pyridine-3-carboxylate], for which the IC50 on TAF1-BD1 turned out to be 0.525 µM; on TAF1-BD2 it was 0.0769 µM.

For the compound `CCC(C)(C)OC(=O)c1c(C)[nH]c2c(=O)n(C)cc(C#C[C@@](C)(O)c3cc(C)on3)c12` [Example 139, 1,1-dimethylpropyl 4-[(3R)-3-hydroxy-3-(5-methylisoxazol-3-yl)but-1-ynyl]-2,6-dimethyl-7-oxo-1H-pyrrolo[2,3-c]pyridine-3-carboxylate], the values for the half-maximal inhibitory concentration (IC50) on TAF1-BD1 and at TAF1-BD2 were 0.232 µM and 0.0477 µM, respectively.

For the compound `CCOC(=O)c1c(C)[nH]c2c(=O)n(C)cc(C#CC3(O)COC3)c12` [Example 30, ethyl 4-[2-(3-hydroxyoxetan-3-yl)ethynyl]-2,6-dimethyl-7-oxo-1H-pyrrolo[2,3-c]pyridine-3-carboxylate], the IC50 at TAF1-BD1 amounted to 0.634 µM; on TAF1-BD2 it was 0.0873 µM.

With `CCOC(=O)c1c(C)[nH]c2c(=O)n(C)cc(C#C[C@@H]3CCCC[C@H]3O)c12` (stereo in doubt) [Example 84, ethyl 4-[2-(2-hydroxycyclohexyl)ethynyl]-2,6-dimethyl-7-oxo-1H-pyrrolo[2,3-c]pyridine-3-carboxylate], the half-maximal inhibitory concentration (IC50) worked out at 2 µM on TAF1-BD1 and 0.187 µM at TAF1-BD2.

Take `CCOC(=O)c1c(C)[nH]c2c(=O)n(C)cc(C#CC(O)(c3ccccc3)C(F)(F)F)c12` (single isomer, unassigned) [Example 91b, ethyl 2,6-dimethyl-7-oxo-4-(4,4,4-trifluoro-3-hydroxy-3-phenyl-but-1-ynyl)-1H-pyrrolo[2,3-c]pyridine-3-carboxylate]: the IC50 turned out to be 0.184 µM on TAF1-BD1 and 0.0422 µM at TAF1-BD2.

As for `Cc1[nH]c2c(=O)n(C)cc(C#CC(C)(C)O)c2c1C(=O)OCC1CCCC1` [Example 148, cyclopentylmethyl 4-(3-hydroxy-3-methyl-but-1-ynyl)-2,6-dimethyl-7-oxo-1H-pyrrolo[2,3-c]pyridine-3-carboxylate], the IC50 worked out at 0.0968 µM at TAF1-BD1 and 0.0237 µM on TAF1-BD2.

For `Cc1[nH]c2c(=O)n(C)cc(C#CC(C)(O)CO)c2c1C(=O)OCC(C)C` (stereo not shown) [Example 127, isobutyl 4-(3,4-dihydroxy-3-methyl-but-1-ynyl)-2,6-dimethyl-7-oxo-1H-pyrrolo[2,3-c]pyridine-3-carboxylate], the values for the IC50 at TAF1-BD1 and at TAF1-BD2 were 0.727 µM and 0.0684 µM, respectively.

Turning to `CCOC(=O)c1c(C)[nH]c2c(=O)n(C)cc(C#CC3(O)CCNCC3)c12` [Example 12, ethyl 4-[2-(4-hydroxy-4-piperidyl)ethynyl]-2,6-dimethyl-7-oxo-1H-pyrrolo[2,3-c]pyridine-3-carboxylate], the results for the IC50 at TAF1-BD1 and on TAF1-BD2 were 0.757 µM and 0.429 µM, respectively.

On to `Cc1[nH]c2c(=O)n(C)cc(C#CC(C)(O)C3CC3)c2c1C(=O)OCc1nccs1` (stereo not shown) [Example 109, thiazol-2-ylmethyl 4-(3-cyclopropyl-3-hydroxy-but-1-ynyl)-2,6-dimethyl-7-oxo-1H-pyrrolo[2,3-c]pyridine-3-carboxylate], for which the IC50 at TAF1-BD1 is 0.222 µM; on TAF1-BD2, 0.0679 µM.

Take `CCOC(=O)c1c(C)[nH]c2c(=O)n(C)cc(C#CC(C)(C)O)c12` [Example 78, ethyl 4-(3-hydroxy-3-methyl-but-1-ynyl)-2,6-dimethyl-7-oxo-1H-pyrrolo[2,3-c]pyridine-3-carboxylate]: the values for the IC50 at TAF1-BD1 and at TAF1-BD2 were 0.616 µM and 0.0385 µM, respectively.

Take `Cc1[nH]c2c(=O)n(C)cc(C#CC(O)(c3ccccc3)C(F)(F)F)c2c1C(=O)OCC(C)C` (stereo not shown) [Example 130, isobutyl 2,6-dimethyl-7-oxo-4-(4,4,4-trifluoro-3-hydroxy-3-phenyl-but-1-ynyl)-1H-pyrrolo[2,3-c]pyridine-3-carboxylate]: the IC50 at TAF1-BD1 came out at 1.54 µM; on TAF1-BD2, 0.28 µM.

`Cc1cc2c(C#CC(C)(C)O)cn(C)c(=O)c2[nH]1` [Example 198, 4-(3-hydroxy-3-methyl-but-1-ynyl)-2,6-dimethyl-1H-pyrrolo[2,3-c]pyridin-7-one]: the IC50 at TAF1-BD1 came out at 1.74 µM; on TAF1-BD2, 0.536 µM.

In the case of `Cc1[nH]c2c(=O)n(C)cc(C#CC(C)(C)O)c2c1C(=O)OCc1ccncc1` [Example 112, 4-pyridylmethyl 4-(3-hydroxy-3-methyl-but-1-ynyl)-2,6-dimethyl-7-oxo-1H-pyrrolo[2,3-c]pyridine-3-carboxylate], the IC50 is 4.62 µM on TAF1-BD1 and 0.61 µM on TAF1-BD2.

For the compound `Cc1[nH]c2c(=O)n(C)cc(C#CC(C)(C)O)c2c1C(=O)NC(C)(C)C` [Example 170, N-tert-butyl-4-(3-hydroxy-3-methyl-but-1-ynyl)-2,6-dimethyl-7-oxo-1H-pyrrolo[2,3-c]pyridine-3-carboxamide], the IC50 on TAF1-BD1 was determined as 3.62 µM; at TAF1-BD2, 0.347 µM.

As to `Cc1[nH]c2c(=O)n(C)cc(C#CC(C)(C)O)c2c1C(=O)OC(C)c1ccccc1` (stereo not shown) [Example 120, 1-phenylethyl 4-(3-hydroxy-3-methyl-but-1-ynyl)-2,6-dimethyl-7-oxo-1H-pyrrolo[2,3-c]pyridine-3-carboxylate], the values for the IC50 at TAF1-BD1 and at TAF1-BD2 were 0.26 µM and 0.0832 µM, respectively.

For the compound `Cc1[nH]c2c(=O)n(C)cc(C#CC(C)(O)C3CC3)c2c1-c1nnc(CC(C)C)o1` (stereo not shown) [Example 179, 4-(3-cyclopropyl-3-hydroxy-but-1-ynyl)-3-(5-isobutyl-1,3,4-oxadiazol-2-yl)-2,6-dimethyl-1H-pyrrolo[2,3-c]pyridin-7-one], the IC50 was 0.137 µM on TAF1-BD1 and 0.0292 µM on TAF1-BD2.

Regarding `CCOC(=O)c1c(C)[nH]c2c(=O)n(C)cc(C#Cc3cccc(O)c3)c12` [Example 63, ethyl 4-[2-(3-hydroxyphenyl)ethynyl]-2,6-dimethyl-7-oxo-1H-pyrrolo[2,3-c]pyridine-3-carboxylate], the IC50 is 0.195 µM on TAF1-BD1 and 0.0385 µM at TAF1-BD2.

As to `Cc1nnc(-c2c(C)[nH]c3c(=O)n(C)cc(C#CC(C)(O)C4CC4)c23)o1` (stereo not shown) [Example 192, 4-(3-cyclopropyl-3-hydroxy-but-1-ynyl)-2,6-dimethyl-3-(5-methyl-1,3,4-oxadiazol-2-yl)-1H-pyrrolo[2,3-c]pyridin-7-one], the IC50 was 0.335 µM at TAF1-BD1 and 0.0616 µM at TAF1-BD2.

Consider `CCOC(=O)c1c(C)[nH]c2c(=O)n(C)cc(C#CC(O)(CC)c3ccccc3)c12` (stereo not shown) [Example 75, ethyl 4-(3-hydroxy-3-phenyl-pent-1-ynyl)-2,6-dimethyl-7-oxo-1H-pyrrolo[2,3-c]pyridine-3-carboxylate], for which the 50% inhibitory concentration (IC50) at TAF1-BD1 was determined as 0.427 µM; at TAF1-BD2 it was 0.0765 µM.

`CC(=O)NCCCOC(=O)c1c(C)[nH]c2c(=O)n(C)cc(C#CC(O)(c3ccccc3)C(F)(F)F)c12` (stereo not shown) [Example 135, 3-acetamidopropyl 2,6-dimethyl-7-oxo-4-(4,4,4-trifluoro-3-hydroxy-3-phenyl-but-1-ynyl)-1H-pyrrolo[2,3-c]pyridine-3-carboxylate]: the IC50 at TAF1-BD1 amounted to 0.295 µM; on TAF1-BD2, 0.0408 µM.

For the compound `Cc1[nH]c2c(=O)n(C)cc(C#CC(C)(C)O)c2c1C(=O)OCc1ccccc1CO` [Example 111, [2-(hydroxymethyl)phenyl]methyl 4-(3-hydroxy-3-methyl-but-1-ynyl)-2,6-dimethyl-7-oxo-1H-pyrrolo[2,3-c]pyridine-3-carboxylate], the results for the IC50 at TAF1-BD1 and at TAF1-BD2 were 0.259 µM and 0.0379 µM, respectively.

The values are drawn from patent US10202378B2, “Therapeutic compounds and uses thereof” (GENENTECH, INC., priority 2015, dated 2019).
